Measurements: patent publication US10539552B2, “Compositions and methods for measuring cellular mechanical stress” (The Regents of the University of California, priority 2014, dated 2020)
“Also recorded” adds a separate entry of the source. Blank lines part the entries; values can stand above or below the compound they belong to.

Columns and labels:
CaMKII [1] = biological target: T1, CaMKII (Rattus norvegicus, UniProt P11275); assay: In vitro CaMKII activity measurement with Camui FRET sensor in HEK cell lysates; type: biochemical
T1 construct: Camui comprises of full length CaMKII with a CFP/YFP pair on either end of the kinase; expressed in transfected cells; host or cells: HEK293 (lysate, cytosolic fraction)
T1 sequence (P11275 whole entry): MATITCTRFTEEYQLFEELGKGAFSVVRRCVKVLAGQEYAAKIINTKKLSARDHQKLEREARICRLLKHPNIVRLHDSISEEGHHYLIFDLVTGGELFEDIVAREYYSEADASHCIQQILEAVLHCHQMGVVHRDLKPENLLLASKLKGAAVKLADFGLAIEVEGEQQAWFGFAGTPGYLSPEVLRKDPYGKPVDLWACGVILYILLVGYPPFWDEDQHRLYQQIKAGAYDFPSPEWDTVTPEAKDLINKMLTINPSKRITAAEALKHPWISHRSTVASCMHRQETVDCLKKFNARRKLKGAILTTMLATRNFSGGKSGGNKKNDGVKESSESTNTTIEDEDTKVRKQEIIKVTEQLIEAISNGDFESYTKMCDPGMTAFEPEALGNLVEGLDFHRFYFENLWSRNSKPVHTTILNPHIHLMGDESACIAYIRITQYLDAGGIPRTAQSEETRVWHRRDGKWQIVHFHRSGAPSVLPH
Protocol: (§1) In Vitro CaMKII activity measurements with Camui sensor. Design and synthesis of the wild-type, phosphorylation resistant, and oxidation resistant Camui constructs were previously described. HEK293 cells were cultured in Eagle's medium plus 5% fetal bovine serum and penicillin/streptomycin for 24 hour and then transfected with plasmids encoding Camui (or a mutant isoform) using a mammalian transfection kit (Stratagene). After an additional 24 hour, Camui expression was checked by fluorescence microscopy. HEK cells expressing Camui were lysed in Ca^2+-free buffer containing 50 mM Tris-HCl buffer (pH 7.5), 5 mM MgCl2, and protease inhibitors. Fluorescence measurements were performed using a MS SpectraMax plate reading spectrophotometer (Molecular Devices) with excitation and emission slits set to 4 nm, excitation wavelength set to 440 nm, emission wavelengths set to 477 nm (FCFP) and 527 nm (FYFP), respectively. The cytosolic fraction of the transfected HEK cells […] Camui fluorescence was measured in the presence of 10 μM CaM and 200 μM Ca^2+. EGTA 1 mM was used to chelate Ca^2+ and autonomous CaMKII activity was measured in the presence of 1 mM EGTA and either 50 μM or 500 μM SNAP.
(§2) CaMKII activity was known to be increased by auto-phosphorylation and by oxidation. Here we measure the effect of nitric oxide (NO) on CaMKII activity using the FRET-based biosensor Camui which detects conformational changes in CaMKII during activation. To determine whether NO can activate CaMKII, we expressed the CaMKII activity sensor Camui in HEK cells and measured autonomous activation induced by the NO donor SNAP. Camui comprises of full length CaMKII with a CFP/YFP pair on either end of the kinase, which produce substantial FRET in the closed (autoinhibited) state. If autoinhibition is disrupted, either directly by Ca^2+/CaM binding or autonomously by post-translational modification of the kinase, FRET is reduced, resulting in an increase in FCFP/FYFP. […] CaMKII is known to be autonomously activated by T286 phosphorylation and by CM280/281 oxidation. To test whether one or both of these mechanisms were responsible for SNAP-induced CaMKII activation, we repeated the HEK cell experiment using mutant versions of Camui lacking either the phosphorylation (T286) or oxidation (CM280/281) target sites. In both cases, SNAP dependent activation of CaMKII was preserved.

CaMKII [2] = assay: as above; type: biochemical; conditions: Camui lacking phosphorylation (T286) or oxidation (CM280/281) sites
Protocol: as §1, §2

[3] = tested on: mouse ventricular myocytes (wild-type); assay: Cell-in-Gel confocal Ca^2+ spark imaging during myocyte contraction under afterload (wild-type); type: cell-based; conditions: wild-type myocytes contracting in Gel7.5%, paced 0.5 Hz, L-NAME 10 mM, L-NPA 5 μM, L-Nio 10 μM, Gp91ds 1 μM, blebbistatin 10 μM
Protocol: Cell isolation. Wild-type and transgenic mice, 8 weeks old male, were purchased from Jackson Laboratories (USA): C57BL/6J (wild-type), B6.129S4-Nos1tm1Plh/J (NOS1−/−), B6.129P2-Nos3tm1Unca/J (NOS3−/−). Transgenic mouse with R92Q mutation in cardiac troponin T was created in Tardiff s lab (22) and bred in Chen-Izu's lab. A standard enzymatic technique (40) was used to isolate the ventricular myocytes using Worthington collagenase type II and Sigma protease type XIV. All experiments were conducted at 21-22° C.
Cell-in-Gel system. Elastic gel matrix was made of a poly vinyl alcohol (PVA) hydrogel system comprised of underivatized PVA (98 KD) and a tetravalent boronate-PEG crosslinker (12). Freshly isolated myocytes were first suspended in 7% PVA solution; then 7.5% crosslinker solution was added in equal volume (Gel7.5%). Upon mixing, the boronate group crosslinks PVA hydrogel, embedding the cell in the 3D gel matrix. The boronate group also crosslinks the cis-diols of the cell-surface glycans to PVA, thereby tethering the cell surface to the gel. We used Gel7.5% for all the experiments in this study except one group in FIG. 11G using Gel5%.
Confocal imaging of Ca^2+ signals. Myocytes were loaded with Ca^2+ indicator, Fluo-4, and then embedded in the gel. Confocal imaging was performed using standard method (41).
For confocal imaging of the Ca^2+ signals, freshly isolated myocytes were continuously perfused in Tyrode solution containing (in mM): 150 NaCl, 5.4 KCl, 1.2MgCl2, 1 CaCl2, at pH 7.4, loaded with Ca^2+ indicator Fluo-4, and then embedded in the PVA gel. The cell was paced at 0.5 Hz frequency by electrical field stimulation using short (4 ms) depolarization pulses with bipolar switching (switch positive and negative polarity in consecutive stimulus pulses). The platinum electrodes were used in conjunction with continues perfusion of fresh Tyrode solution to maintain constant bath condition (pH, glucose, ionic composition, temperature etc.).
Confocal images were obtained using an Olympus FluoView 1000 Confocal Microscope (inverted configuration) with a water immersion fluorescence objective UPlanSApo 60X, NA1.2, corrected for the thickness of the No. 1 glass coverslip that is used at the bottom of the perfusion chamber. Fluo-4 was excited with 488 nm laser beam (laser power set to 5%), and the emitted fluorescence light was passed through a bandpass filter BA505-605 and collected with a PMT. The PMT voltage, gain, and offset were set to avoid any saturation and to obtain high fidelity images. The line-scan images were obtained using the highest scan speed of 2 μs/pixel.
Ca^2+ sparks were detected automatically using a homemade program based on our spark identification algorithm and adapted for x-t linescans. As in our 2-D program, sparks are identified in two stages. In the first stage, putative sparks are detected based on Cheng et al.'s description and bright but spatially small events were eliminated using the ‘live-or-die’ algorithm described in our previous publication. In the second stage, the putative sparks were classified as sparks or noise based on the statistical sieve as described previously in our publication. This analysis software provides automated and objective (agnostic via statistical sieving) detection and classification of the Ca^2+ signaling events. […]

[4] = tested on: mouse ventricular myocytes; assay: Systolic Ca^2+ transient and myocyte contraction in-Gel (Fluo-4 confocal / Fura-2 ratio, sarcomere detection); type: cell-based; conditions: for peak systolic Ca^2+ transient (Fura-2 ratio), inhibitor effect: L-NPA 5 μM; for systolic Ca^2+ transient (Fluo-4 confocal): compared to load-free contraction, blebbistatin 10 μM in gel
Text: Mechanical load effects on the myocyte contraction and systolic Ca^2+ transient. To establish that the diastolic spontaneous Ca^2+ sparks are indeed caused by the mechanical load, we examined the Ca^2+ spark rate in the myocytes contracting under different mechanical loads as shown in FIG. 11G. We also examined the systolic Ca^2+ transient and the myocyte contraction under these conditions of varying loads.
Whole cell Ca^2+ transient measurement using Fura-2 ratiometric method. In order to more precisely measure the whole cell Ca^2+ concentration, we used Fura-2 ratiometric method (40) rather than Fluo-4 single wavelength measurement. Fura-2 loading was done by incubating the cells with 2.5 μM Fura-2/AM and 0.75 μM Pluronic-127 (in 20% DMSO) at room temperature for 30 minutes. After washing out Fura-2/AM, the cells were incubated for an additional 45 minutes, and then used for experiment within 2 hours. An IonOptix system (IonOptix Inc., USA) with a Hyperswitch and mounted on the Olympus X71 inverted microscope with a water immersion fluorescence objective UPlanSPao 40×, 1.15 NA, corrected for the thickness of the No. 1 glass coverslip. The excitation light was generated using a high intensity ARC lamp (Cairn). The Hyperswitch (galvanometer based switching between […] and 380 nm at 500 Hz frequency, using a 340/370d/380 filter cube) was used to deliver dual excitation beams at 340 nm and 380 nm, switching between the two wavelengths. Fura-2 fluorescence emission light was passed through a bandpass filter D510/40m, and then collected in a photomultiplier tube (PMT). The gain of the PMT was set to avoid any saturation and to obtain high fidelity photon count.
The Fura-2 fluorescence emission (F) from the excitation at 340 nm and 380 nm were recorded from the cell. The background fluorescence (BG) at 340 nm and 380 nm wavelengths were obtained in the solution and in the gel without cell. The BG signals were found slightly higher in the gel than in solution, but both were substantially lower than the Fura-2 fluorescence emissions from the cell. The Fura-2 fluorescence ratio, RFura, was calculated after background subtraction.
For measuring the systolic Ca^2+ transient, the cell was first paced to reach steady-state (>2 minutes), and then the Fura-2 fluorescence was recorded for at least 10 beats during steady-state. For SR content measurement, after the cell reaching steady-state the field stimulation was stopped to keep the cell at resting state for 15 seconds; then caffeine at high concentration (20 mM) was applied to rapidly deplete the SR load (FIG. 14A,B). The rapidity of the SR Ca^2+ release was accessed by the rising velocity of the caffeine-induced Ca^2+ transient, and the peak Ca^2+ value was used as an index to measure the SR load. […] Since RyR sensitivity to intra-SR [Ca^2+] is steep, we also acknowledge that small changes in SR Ca^2+ that we could not detect could have functional impact.
Myocyte contraction measurement. Contraction measurement using Fluo-4 confocal image was determined from the confocal x-t linescan by the difference in the positions of the left and right boundaries demarcated by the bright fluo-4 signal and the dimmer signal from the PVA gel or the bathing solution. Myocyte length was calculated by converting the fluorescence signal along each x into a binary vector. Fluorescence values above background plus a threshold were considered 1, otherwise 0. The numbers of “1” pixels was then multiplied by a scaling factor (determined by using a Ronchi ruling with 2.5 spacing) to get the cell shortening in microns. The threshold was set to half of the maximum calcium fluorescence.
Contraction measurement using IonOptix system (IonOptix Co., USA) with sarcomere detection was done by using a high speed camera (Myocam-S, 240 up to 1000 frame/s) the record the sarcomere movement during contraction. […]

[5] = myocytes contracting in-Gel, L-Nio 10 μM

autonomous CaMKII activation (FCFP/FYFP) (CaMKII [1]; 50 μM SNAP with 1 mM EGTA, compared to EGTA only): no effect
Structure (SMILES): CC(=O)N[C@@H](C(=O)O)C(C)(C)SN=O (racemic) [SNAP]
autonomous CaMKII activation (FCFP/FYFP) (CaMKII [1]; 500 μM SNAP with 1 mM EGTA): significant increase in CaMKII activation; also recorded: Autonomous CaMKII activation was seen | CaMKII activation relative to Ca^2+/CaM dependent activity (CaMKII [1]; 500 μM SNAP with EGTA): about 50 % of Ca^2+/CaM dependent activity | SNAP dependent CaMKII activation in mutant Camui (CaMKII [2]): preserved; also recorded: not secondary to either phosphorylation (T286A) or oxidation (CM/VV)

Structure (SMILES): COC(=O)[C@@H](N)CCCNC(=N)N[N+](=O)[O-] [L-NAME]
afterload-induced diastolic spontaneous Ca^2+ sparks, drug effect [3]: effectively suppressed Ca^2+ sparks

Structure (SMILES): CCCN=C(N)NCCC[C@H](N)C(=O)O.Cl [L-NPA, Nw-Propyl-L-arginine hydrochloride]
peak systolic Ca^2+ transient (Fura-2 ratio), inhibitor effect [4, 5]: reduced the Ca^2+ transient | afterload-induced diastolic spontaneous Ca^2+ sparks, drug effect [3]: effectively suppressed Ca^2+ sparks

Structure (SMILES): CC(N)=NCCC[C@H](N)C(=O)O.Cl.Cl [L-Nio, L-Nio-dihydrochloride]
peak systolic Ca^2+ transient (Fura-2 ratio), inhibitor effect [4, 5]: reduced the Ca^2+ transient | Tau of the Ca^2+ transient decline [4, 5]: slowed the speed of Ca^2+ transient decline | afterload-induced diastolic spontaneous Ca^2+ sparks, drug effect [3]: failed to suppress Ca^2+ sparks

Structure (SMILES): Cc1ccc2c(c1)C(=O)C1(O)CCN(c3ccccc3)C1=N2 (stereo not drawn) [blebbistatin]
systolic Ca^2+ transient (Fluo-4 confocal) [4]: restored the Ca^2+ transient and spark rate to the load-free condition | systolic Ca^2+ transient (Fluo-4 confocal) ([4]; listed as Blebbistatin): restored the Ca^2+ transient to the load-free condition | myocyte contraction amplitude (fractional shortening) ([4]; in gel versus load-free, blebbistatin 10 μM): decoupled cell contraction from Ca^2+ signaling | afterload-induced diastolic spontaneous Ca^2+ sparks, drug effect [3]: restored the Ca^2+ transient and spark rate to the load-free condition | afterload-induced diastolic spontaneous Ca^2+ sparks, drug effect ([3]; listed as Blebbistatin): normalization of Ca^2+ spark rate
